Test results published in patent publication US12077503B2, “Substituted cyclic amides and their use as herbicides” (FMC CORPORATION, priority 2015, dated 2024).

What was measured:
Format in all cases: in vivo
[1] = tested on: giant foxtail (Setaria faberii); test: Test A postemergence; details: Setaria faberi, post-emergence, 240 h, Postemergence
In short: (§1)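 Preemergence directed soil spray on seeded pots, or postemergence application to plants 2–10 cm, one- to two-leaf. Solvent mixture non-phytotoxic, with surfactant. Scored ~10 d later, visually, 0–100 vs untreated.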

[2] = tested on: Kochia (Kochia scoparia); test: Test A postemergence; details: Bassia scoparia, post-emergence, 240 h, Postemergence
In short: as §1

[3] = tested on: wheat (Triticum aestivum); test: Test A postemergence; details: Triticum aestivum, post-emergence, 240 h, Postemergence
In short: as §1

[4] = tested on: barnyardgrass (Echinochloa crus-galli); test: Test A postemergence; details: Echinochloa crus-galli, post-emergence, 240 h, Postemergence
In short: as §1

[5] = tested on: pigweed (Amaranthus retroflexus); test: Test A postemergence; details: Amaranthus retroflexus, post-emergence, 240 h, Postemergence
In short: as §1

[6] = tested on: corn (Zea mays); test: Test A postemergence; details: Zea mays, post-emergence, 240 h, Postemergence
In short: as §1

[7] = tested on: Galium (catchweed bedstraw, Galium aparine); test: Test A postemergence; details: Galium, post-emergence, 240 h, Postemergence
In short: as §1

[8] = tested on: ryegrass, Italian (Italian ryegrass, Lolium multiflorum); test: Test A postemergence; details: Lolium multiflorum, post-emergence, 240 h, Postemergence
In short: as §1

[9] = tested on: ragweed (common ragweed, Ambrosia elatior); test: Test A postemergence; details: Ambrosia artemisiifolia, post-emergence, 240 h, Postemergence
In short: as §1

[10] = tested on: giant foxtail (Setaria faberii); test: Test A preemergence; details: Setaria faberi, pre-emergence, 240 h
In short: as §1

[11] = tested on: Kochia (Kochia scoparia); test: Test A preemergence; details: Bassia scoparia, pre-emergence, 240 h
In short: as §1

[12] = tested on: barnyardgrass (Echinochloa crus-galli); test: Test A preemergence; details: Echinochloa crus-galli, pre-emergence, 240 h
In short: as §1

[13] = tested on: pigweed (Amaranthus retroflexus); test: Test A preemergence; details: Amaranthus retroflexus, pre-emergence, 240 h
[14] = tested on: ryegrass, Italian (Italian ryegrass, Lolium multiflorum); test: Test A preemergence; details: Lolium multiflorum, pre-emergence, 240 h, Preemergence, 125 g ai/ha; 0 to 100 scale (0 no effect, 100 complete control); read-out: Plant response rating, Ryegrass, Italian
In short: as §1

[15] = tested on: ragweed (common ragweed, Ambrosia elatior); test: Test A preemergence; details: Ambrosia artemisiifolia, pre-emergence, 240 h
In short: as §1

CS(=O)(=O)c1ccccc1NC(=O)[C@H]1C(=O)NC[C@@H]1c1ccc2c(c1)CCO2 [Compound 1320]
40%: pest or weed control at 500 g/ha ([7]; 500 g ai/ha, visual injury, 0 to 100 scale (0 no effect, 100 complete control), approx. 10 d, read-out: Plant response rating, Galium)
0%: pest or weed control at 125 g/ha ([1]; 125 g ai/ha, visual rating about 10 d after treatment, read-out: Foxtail, Giant plant response rating (0 to 100 scale)) | pest or weed control at 125 g/ha ([2]; 125 g ai/ha, visual rating about 10 d after treatment, read-out: Kochia plant response rating (0 to 100 scale)) | pest or weed control at 500 g/ha ([2]; 500 g ai/ha, visual injury, 0 to 100 scale (0 no effect, 100 complete control), approx. 10 d, read-out: Plant response rating, Kochia) | plant injury at 125 g/ha ([3]; 125 g ai/ha, visual rating about 10 d after treatment, read-out: Wheat plant response rating (0 to 100 scale)) | plant injury at 500 g/ha ([3]; 500 g ai/ha, visual injury, 0 to 100 scale (0 no effect, 100 complete control), approx. 10 d, read-out: Plant response rating, Wheat) | pest or weed control at 125 g/ha ([4]; 125 g ai/ha, visual rating about 10 d after treatment, read-out: Barnyardgrass plant response rating (0 to 100 scale, 0 no effect, 100 complete control)) | pest or weed control at 125 g/ha ([5]; 125 g ai/ha, visual rating about 10 d after treatment, read-out: Pigweed plant response rating (0 to 100 scale)) | pest or weed control at 500 g/ha ([5]; 500 g ai/ha, visual injury, 0 to 100 scale (0 no effect, 100 complete control), approx. 10 d, read-out: Plant response rating, Pigweed) | plant injury at 125 g/ha ([6]; 125 g ai/ha, visual rating about 10 d after treatment, read-out: Corn plant response rating (0 to 100 scale)) | Corn plant response rating (crop injury, 0 = no effect, 100 = complete kill) at 500 g/ha ([6]; 500 g ai/ha, visual injury, 0 to 100 scale (0 no effect, 100 complete control), approx. 10 d) | pest or weed control at 125 g/ha ([8]; 125 g ai/ha, visual rating about 10 d after treatment, read-out: Ryegrass, Italian plant response rating (0 to 100 scale)) | pest or weed control at 500 g/ha ([8]; 500 g ai/ha, visual injury, 0 to 100 scale (0 no effect, 100 complete control), approx. 10 d, read-out: Plant response rating, Ryegrass, Italian) | pest or weed control at 125 g/ha ([9]; 125 g ai/ha, visual rating about 10 d after treatment, read-out: Ragweed plant response rating (0 to 100 scale)) | pest or weed control at 500 g/ha ([9]; 500 g ai/ha, visual injury, 0 to 100 scale (0 no effect, 100 complete control), approx. 10 d, read-out: Plant response rating, Ragweed) | pest or weed control at 125 g/ha ([10]; Preemergence, 125 g ai/ha, 0 to 100 scale (0 no effect, 100 complete control), read-out: Plant response rating, Foxtail, Giant) | pest or weed control at 125 g/ha ([11]; Preemergence, 125 g ai/ha, 0 to 100 scale (0 no effect, 100 complete control), read-out: Plant response rating, Kochia) | pest or weed control at 125 g/ha ([12]; Preemergence, 125 g ai/ha, 0 to 100 scale (0 no effect, 100 complete control), read-out: Plant response rating, Barnyardgrass) | pest or weed control at 500 g/ha ([13]; 500 g ai/ha, preemergence, 0 to 100 scale where 0 is no effect and 100 is complete control, read-out: Pigweed plant response rating) | pest or weed control at 125 g/ha ([13]; Preemergence, 125 g ai/ha, 0 to 100 scale (0 no effect, 100 complete control), read-out: Plant response rating, Pigweed) | pest or weed control at 125 g/ha [14] | pest or weed control at 500 g/ha ([15]; 500 g ai/ha, preemergence, 0 to 100 scale where 0 is no effect and 100 is complete control, read-out: Ragweed plant response rating) | pest or weed control at 125 g/ha ([15]; Preemergence, 125 g ai/ha, 0 to 100 scale (0 no effect, 100 complete control), read-out: Plant response rating, Ragweed)
20%: pest or weed control at 500 g/ha ([1]; 500 g ai/ha, visual injury, 0 to 100 scale (0 no effect, 100 complete control), approx. 10 d, read-out: Plant response rating, Foxtail, Giant)
80%: pest or weed control at 500 g/ha ([10]; 500 g ai/ha, preemergence, 0 to 100 scale where 0 is no effect and 100 is complete control, read-out: Foxtail, Giant plant response rating)
50%: pest or weed control at 500 g/ha ([4]; 500 g ai/ha, visual injury, 0 to 100 scale (0 no effect, 100 complete control), approx. 10 d, read-out: Plant response rating, Barnyardgrass)
60%: pest or weed control at 500 g/ha ([11]; 500 g ai/ha, preemergence, 0 to 100 scale where 0 is no effect and 100 is complete control, read-out: Kochia plant response rating) | pest or weed control at 500 g/ha ([12]; 500 g ai/ha, preemergence, 0 to 100 scale where 0 is no effect and 100 is complete control, read-out: Barnyardgrass plant response rating)
30%: pest or weed control at 125 g/ha ([7]; 125 g ai/ha, visual rating about 10 d after treatment, read-out: Galium plant response rating (0 to 100 scale))
